# Measured values taken from ChEMBL document CHEMBL5352405, “Discovery of azaspirocyclic 1H-3,4,5-Trisubstitued pyrazoles as novel G2019S-LRRK2 selective kinase inhibitors” (Eur J Med Chem, 2022).
# Tests used:
# in vitro [1] = details: mouse, liver microsomes
# in vitro [2] = details: human, Caco-2
structure (smiles),measurement,setting,value
Cc1[nH]nc(-c2ccncc2)c1-c1ccc(-c2cccc(S(N)(=O)=O)c2)c(C2CC2)c1,half-life,in vitro [1],30 min
same,Papp A→B,in vitro [2],88 nm/s
